Measured values published in ChEMBL document CHEMBL1201862, “PubChem BioAssay data set” (2004).
Activity calls are given as the source filed them.

Experiments:
[1] = molecular target: T1, Zinc finger protein mex-5 (Caenorhabditis elegans, UniProt Q9XUB2); assay: MEX-5/TCR-2 RNA interaction inhibitors, dose response, biochemical, C. elegans, fluorescence polarization (AID 1960)
T1 sequence (Q9XUB2 whole entry): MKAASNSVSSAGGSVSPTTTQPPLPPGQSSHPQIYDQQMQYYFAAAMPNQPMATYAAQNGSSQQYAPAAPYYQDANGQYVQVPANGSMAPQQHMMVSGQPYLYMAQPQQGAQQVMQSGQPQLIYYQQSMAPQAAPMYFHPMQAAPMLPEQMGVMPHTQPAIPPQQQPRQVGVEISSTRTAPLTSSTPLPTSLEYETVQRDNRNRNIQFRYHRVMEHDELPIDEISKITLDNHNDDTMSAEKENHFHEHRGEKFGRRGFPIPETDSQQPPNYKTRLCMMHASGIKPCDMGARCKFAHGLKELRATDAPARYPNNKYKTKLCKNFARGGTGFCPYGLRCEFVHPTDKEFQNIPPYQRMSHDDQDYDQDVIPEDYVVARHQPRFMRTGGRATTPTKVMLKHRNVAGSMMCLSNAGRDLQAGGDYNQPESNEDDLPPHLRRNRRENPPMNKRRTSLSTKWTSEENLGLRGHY

[2] = molecular target: Keap1/Nrf2 (Homo sapiens, UniProt Q14145); assay: Keap1-Nrf2 protein-protein interaction inhibitors, dose response, biochemical, fluorescence polarization, cherry-picked samples (AID 588683)
[3] = molecular target: T2, RNA-binding protein pos-1 (Caenorhabditis elegans, UniProt G5EF15); assay: inhibitors of POS-1/mex-3 RNA binding, dose response, biochemical, fluorescence polarization (AID 1964);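 note: purified POS-1 fused to maltose binding protein made in E. coli; potency of compounds blocking POS-1 binding to fluorescent RNA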
T2 sequence (G5EF15 whole entry): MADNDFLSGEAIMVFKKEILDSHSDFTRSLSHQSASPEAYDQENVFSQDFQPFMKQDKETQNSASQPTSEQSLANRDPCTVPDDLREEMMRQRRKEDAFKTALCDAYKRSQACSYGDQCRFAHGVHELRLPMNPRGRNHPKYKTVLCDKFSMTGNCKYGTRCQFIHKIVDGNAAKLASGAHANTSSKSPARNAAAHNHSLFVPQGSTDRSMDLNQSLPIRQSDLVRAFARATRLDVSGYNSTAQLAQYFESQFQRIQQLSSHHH

[4] = molecular target: T3, Kappa-type opioid receptor (Homo sapiens, UniProt P41145); assay: KOR antagonists by imaging, SAR follow-up, image-based (AID 2348); format: functional
[5] = molecular target: T4, Mu-type opioid receptor (Homo sapiens, UniProt P35372); assay: MOR agonists by imaging, SAR follow-up, image-based (AID 2352); format: functional
[6] = molecular target: T4, Mu-type opioid receptor; assay: MOR antagonists, SAR follow-up, image-based (AID 2420); format: functional;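 note: compounds added before stimulation of receptor with agonist DAMGO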
[7] = molecular target: T3, Kappa-type opioid receptor; assay: kappa opioid receptor blockers, cell-based, luminescence, beta-arrestin, SAR follow-up (AID 2285); format: functional
[8] = molecular target: T3, Kappa-type opioid receptor; assay: KOR agonist analogs, imaging readout, SAR follow-up, image-based (AID 2359); format: functional
[9] = molecular target: T5, Delta-type opioid receptor (Homo sapiens, UniProt P41143); assay: DOR antagonists, SAR follow-up, image-based (AID 2357); format: functional
[10] = molecular target: T5, Delta-type opioid receptor; assay: DOR agonists, SAR follow-up, image-based (AID 2370); format: functional
[11] = growth suppression of beta-catenin-knockout colon cells, dose response, cell-based, HCT116, human colon tumor (AID 1045); format: functional;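 note: HCT116 colon tumor cells with beta catenin knocked out; cells exposed to compound for 60 hours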
[12] = molecular target: Type-1 angiotensin II receptor (Homo sapiens, UniProt P30556); assay: AT1 receptor antagonists, dose response, selectivity assay for APJ receptor antagonist project, cell-based, uHTS hits (AID 463214); format: functional;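 note: antagonist potency against angiotensin II stimulated AT1 response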
[13] = growth suppression of PTEN-null colon cells, dose response, cell-based, HCT116 PTEN knockout (AID 1047); format: functional;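 note: HCT116 colon tumor cells with PTEN knocked out; cells exposed to compound for 60 hours before readout; potency for loss of cell viability measured by luminescence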
[14] = molecular target: Beta-galactosidase (Escherichia coli, UniProt Q8VNN2); assay: PubChem AID 485352; format: functional
[15] = cells; format: functional
[16] = HepG2 cell cytotoxicity, dose response, cytotoxicity control for non-replicating M. tuberculosis project (AID 489018); format: functional; details: Mycobacterium tuberculosis
[17] = Vero E6 cell cytotoxicity, dose response, cytotoxicity control for non-replicating M. tuberculosis project, secondary assay (AID 492998); format: functional, VeroE6; details: Vero C1008
[18] = inhibitors of intracellular T. cruzi replication, confirmation, NIH3T3 host cells, beta-gal luminescence (AID 2044); format: functional, cell-based;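 note: intracellular parasites grown in NIH/3T3 mouse fibroblasts as host cells; luminescent beta-galactosidase reporter signal from transgenic T. cruzi replicating inside host cells; inhibitors lower the luminescence signal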
[19] = tested on: INS1; assay: beta cell apoptosis inhibitors, cytokine rescue, dose response, luminescence, retest (AID 449756); format: functional, cell-based; details: Rattus norvegicus;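 note: cell death triggered by IL-1 beta plus TNF-alpha plus IFN-gamma mixture; protective hits raise ATP signal compared with cytokine alone wells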
[20] = cytotoxicity toward NIH3T3 fibroblasts, dose response, counter-screen, cell-based, ATP luminescence, mouse fibroblasts (AID 2010); format: functional;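 note: cells exposed to compound for about 90 hours before reading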
[21] = tested on: Escherichia coli; assay: microbe, parasite or virus in culture
[22] = THP-1 cell cytotoxicity, dose response, cytotoxicity control for non-replicating M. tuberculosis project (AID 489025); format: functional
[23] = molecular target: T6, Microphthalmia-associated transcription factor (Homo sapiens, UniProt O75030); assay: TRPM1 promoter luciferase signal decrease, dose response, MITF inhibitor project, cell-based, SK-MEL-5, cherry-picked, set 3 (AID 493073); format: functional
T6 sequence (O75030 whole entry): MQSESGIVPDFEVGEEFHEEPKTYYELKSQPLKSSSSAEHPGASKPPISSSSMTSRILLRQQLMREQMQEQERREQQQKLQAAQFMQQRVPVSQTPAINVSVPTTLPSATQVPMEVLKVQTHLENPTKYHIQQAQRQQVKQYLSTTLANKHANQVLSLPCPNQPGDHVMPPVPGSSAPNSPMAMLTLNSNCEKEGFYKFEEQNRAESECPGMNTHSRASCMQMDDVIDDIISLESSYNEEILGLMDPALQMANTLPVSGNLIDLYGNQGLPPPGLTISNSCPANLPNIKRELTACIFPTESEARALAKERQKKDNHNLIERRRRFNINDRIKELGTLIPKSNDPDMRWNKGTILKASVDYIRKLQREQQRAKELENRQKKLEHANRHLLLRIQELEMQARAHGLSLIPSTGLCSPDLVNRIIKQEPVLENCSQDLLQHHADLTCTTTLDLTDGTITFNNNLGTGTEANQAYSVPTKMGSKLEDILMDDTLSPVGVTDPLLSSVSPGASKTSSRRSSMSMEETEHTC

[24] = molecular target: T7, Short transient receptor potential channel 4 (Mus musculus, UniProt Q9QUQ5); assay: mouse TRPC4 channel activators, dose response, cell-based, HEK293 TRPC4/mu-opioid, Fluo-4 calcium (AID 434937); format: functional
T7 sequence (Q9QUQ5 whole entry): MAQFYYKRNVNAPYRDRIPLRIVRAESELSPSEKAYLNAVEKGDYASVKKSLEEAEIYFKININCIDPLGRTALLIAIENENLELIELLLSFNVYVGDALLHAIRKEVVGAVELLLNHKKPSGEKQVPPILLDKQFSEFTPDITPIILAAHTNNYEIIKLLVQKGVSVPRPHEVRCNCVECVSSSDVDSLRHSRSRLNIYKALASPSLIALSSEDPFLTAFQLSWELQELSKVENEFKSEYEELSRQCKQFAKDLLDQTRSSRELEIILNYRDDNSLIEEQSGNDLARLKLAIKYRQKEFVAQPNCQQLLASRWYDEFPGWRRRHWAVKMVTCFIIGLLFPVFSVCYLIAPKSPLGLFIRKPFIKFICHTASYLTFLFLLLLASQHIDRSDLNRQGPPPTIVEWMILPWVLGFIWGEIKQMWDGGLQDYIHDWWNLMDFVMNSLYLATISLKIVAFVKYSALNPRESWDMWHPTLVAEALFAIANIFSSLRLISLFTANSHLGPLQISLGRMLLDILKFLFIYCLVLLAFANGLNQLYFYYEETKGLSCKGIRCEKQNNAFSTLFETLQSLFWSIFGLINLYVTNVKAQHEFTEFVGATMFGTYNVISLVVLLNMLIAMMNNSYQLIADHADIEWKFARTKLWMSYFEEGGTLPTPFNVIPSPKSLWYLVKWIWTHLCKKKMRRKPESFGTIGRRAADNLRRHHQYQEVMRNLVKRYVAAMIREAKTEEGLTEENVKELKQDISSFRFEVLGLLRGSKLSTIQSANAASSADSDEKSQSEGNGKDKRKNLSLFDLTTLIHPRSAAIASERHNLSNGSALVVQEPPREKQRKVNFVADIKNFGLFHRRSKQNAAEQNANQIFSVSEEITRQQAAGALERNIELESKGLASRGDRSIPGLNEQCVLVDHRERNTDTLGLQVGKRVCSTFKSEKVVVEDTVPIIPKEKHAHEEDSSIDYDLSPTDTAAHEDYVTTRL

[25] = molecular target: T7, Short transient receptor potential channel 4; assay: mouse TRPC4 channel inhibitors, dose response, cell-based, HEK293 TRPC4/mu-opioid, Fluo-4 calcium (AID 434942); format: functional;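 note: potency of inhibitors blocking the TRPC4 calcium response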
[26] = molecular target: Intestinal-type alkaline phosphatase (Homo sapiens, UniProt P09923); assay: human intestinal alkaline phosphatase activators, dose response, biochemical, luminescence, uHTS hits (AID 463120); format: functional
Chain of Intestinal-type alkaline phosphatase (P09923 whole entry): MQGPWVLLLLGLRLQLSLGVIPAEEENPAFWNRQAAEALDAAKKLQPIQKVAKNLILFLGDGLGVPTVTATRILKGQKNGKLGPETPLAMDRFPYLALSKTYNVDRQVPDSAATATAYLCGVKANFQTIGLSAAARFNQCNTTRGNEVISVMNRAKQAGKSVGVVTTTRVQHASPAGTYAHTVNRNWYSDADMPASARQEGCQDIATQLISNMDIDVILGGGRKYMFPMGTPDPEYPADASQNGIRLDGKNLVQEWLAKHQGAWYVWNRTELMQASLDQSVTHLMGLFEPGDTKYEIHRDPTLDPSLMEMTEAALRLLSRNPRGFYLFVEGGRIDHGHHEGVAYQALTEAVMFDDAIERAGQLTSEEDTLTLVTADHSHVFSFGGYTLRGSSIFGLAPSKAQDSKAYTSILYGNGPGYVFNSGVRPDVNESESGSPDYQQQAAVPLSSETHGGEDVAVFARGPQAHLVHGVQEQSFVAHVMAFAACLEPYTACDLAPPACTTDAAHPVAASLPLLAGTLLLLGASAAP

T5 sequence (P41143 whole entry): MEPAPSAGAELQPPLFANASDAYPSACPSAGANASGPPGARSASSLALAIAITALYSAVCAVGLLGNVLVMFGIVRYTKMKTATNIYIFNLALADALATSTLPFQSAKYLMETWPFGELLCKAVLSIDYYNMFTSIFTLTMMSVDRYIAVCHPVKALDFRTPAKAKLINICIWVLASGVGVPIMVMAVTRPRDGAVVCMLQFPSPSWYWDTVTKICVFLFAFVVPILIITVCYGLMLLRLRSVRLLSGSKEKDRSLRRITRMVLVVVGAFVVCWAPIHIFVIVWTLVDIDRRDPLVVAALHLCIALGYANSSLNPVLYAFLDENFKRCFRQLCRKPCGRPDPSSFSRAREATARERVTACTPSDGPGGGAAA
T4 sequence (P35372 whole entry): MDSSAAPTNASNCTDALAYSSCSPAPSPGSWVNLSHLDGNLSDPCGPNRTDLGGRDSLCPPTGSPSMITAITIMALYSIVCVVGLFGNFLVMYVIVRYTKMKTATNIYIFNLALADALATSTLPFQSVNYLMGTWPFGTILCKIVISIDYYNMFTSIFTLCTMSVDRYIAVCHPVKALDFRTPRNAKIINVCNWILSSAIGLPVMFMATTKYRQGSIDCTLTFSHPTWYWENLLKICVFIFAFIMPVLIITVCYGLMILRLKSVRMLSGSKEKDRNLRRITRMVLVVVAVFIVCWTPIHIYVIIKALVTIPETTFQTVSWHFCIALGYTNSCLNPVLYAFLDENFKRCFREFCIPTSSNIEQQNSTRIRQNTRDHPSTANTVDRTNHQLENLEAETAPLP
T3 sequence (P41145 whole entry): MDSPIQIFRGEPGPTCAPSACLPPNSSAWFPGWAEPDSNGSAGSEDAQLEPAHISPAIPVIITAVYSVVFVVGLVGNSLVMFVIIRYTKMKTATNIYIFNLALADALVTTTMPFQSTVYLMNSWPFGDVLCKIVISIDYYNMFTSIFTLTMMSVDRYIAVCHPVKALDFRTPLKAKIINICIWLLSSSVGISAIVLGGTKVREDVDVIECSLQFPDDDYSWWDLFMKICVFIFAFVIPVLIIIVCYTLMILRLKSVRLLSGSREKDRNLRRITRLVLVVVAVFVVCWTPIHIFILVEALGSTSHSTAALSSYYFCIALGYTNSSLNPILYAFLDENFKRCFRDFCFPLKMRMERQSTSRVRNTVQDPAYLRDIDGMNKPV
Chain of Beta-galactosidase (Q8VNN2 whole entry): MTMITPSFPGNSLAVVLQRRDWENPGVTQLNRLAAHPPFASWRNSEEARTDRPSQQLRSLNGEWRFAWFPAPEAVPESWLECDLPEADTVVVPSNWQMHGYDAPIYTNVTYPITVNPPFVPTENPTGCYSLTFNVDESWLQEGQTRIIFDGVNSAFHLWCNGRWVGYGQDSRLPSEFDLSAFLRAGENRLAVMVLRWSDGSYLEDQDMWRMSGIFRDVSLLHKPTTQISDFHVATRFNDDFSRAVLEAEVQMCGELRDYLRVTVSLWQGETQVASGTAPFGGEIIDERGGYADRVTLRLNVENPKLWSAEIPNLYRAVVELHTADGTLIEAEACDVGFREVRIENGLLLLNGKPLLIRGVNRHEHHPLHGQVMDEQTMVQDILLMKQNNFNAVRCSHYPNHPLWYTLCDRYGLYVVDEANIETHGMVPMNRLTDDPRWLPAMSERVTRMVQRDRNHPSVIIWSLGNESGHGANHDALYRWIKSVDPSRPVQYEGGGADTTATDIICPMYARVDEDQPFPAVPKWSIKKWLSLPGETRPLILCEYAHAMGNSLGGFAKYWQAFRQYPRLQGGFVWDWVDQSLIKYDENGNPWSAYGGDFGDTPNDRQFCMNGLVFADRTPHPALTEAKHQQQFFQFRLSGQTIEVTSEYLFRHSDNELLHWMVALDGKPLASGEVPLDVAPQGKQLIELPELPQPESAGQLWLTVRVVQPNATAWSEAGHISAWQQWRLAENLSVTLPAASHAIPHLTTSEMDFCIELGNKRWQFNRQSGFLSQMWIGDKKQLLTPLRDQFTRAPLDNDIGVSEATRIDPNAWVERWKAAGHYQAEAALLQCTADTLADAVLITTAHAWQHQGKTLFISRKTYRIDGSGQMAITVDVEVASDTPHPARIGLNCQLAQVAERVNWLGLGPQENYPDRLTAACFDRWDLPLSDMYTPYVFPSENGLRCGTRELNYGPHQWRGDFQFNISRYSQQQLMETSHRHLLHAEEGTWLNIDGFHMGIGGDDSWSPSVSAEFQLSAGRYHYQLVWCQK
Chain of Type-1 angiotensin II receptor (P30556 whole entry): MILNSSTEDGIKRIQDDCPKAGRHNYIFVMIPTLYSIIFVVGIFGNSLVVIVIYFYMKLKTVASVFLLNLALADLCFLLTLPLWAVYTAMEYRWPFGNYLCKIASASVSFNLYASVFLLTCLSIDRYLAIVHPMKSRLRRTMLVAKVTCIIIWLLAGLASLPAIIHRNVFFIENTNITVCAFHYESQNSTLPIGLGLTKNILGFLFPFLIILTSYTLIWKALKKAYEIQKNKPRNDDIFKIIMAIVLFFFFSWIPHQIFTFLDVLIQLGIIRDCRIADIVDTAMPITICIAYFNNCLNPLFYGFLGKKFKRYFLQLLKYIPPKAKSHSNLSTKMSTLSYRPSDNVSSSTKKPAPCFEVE
Chain of Keap1/Nrf2 (Q16236 whole entry, the tested form may be a part): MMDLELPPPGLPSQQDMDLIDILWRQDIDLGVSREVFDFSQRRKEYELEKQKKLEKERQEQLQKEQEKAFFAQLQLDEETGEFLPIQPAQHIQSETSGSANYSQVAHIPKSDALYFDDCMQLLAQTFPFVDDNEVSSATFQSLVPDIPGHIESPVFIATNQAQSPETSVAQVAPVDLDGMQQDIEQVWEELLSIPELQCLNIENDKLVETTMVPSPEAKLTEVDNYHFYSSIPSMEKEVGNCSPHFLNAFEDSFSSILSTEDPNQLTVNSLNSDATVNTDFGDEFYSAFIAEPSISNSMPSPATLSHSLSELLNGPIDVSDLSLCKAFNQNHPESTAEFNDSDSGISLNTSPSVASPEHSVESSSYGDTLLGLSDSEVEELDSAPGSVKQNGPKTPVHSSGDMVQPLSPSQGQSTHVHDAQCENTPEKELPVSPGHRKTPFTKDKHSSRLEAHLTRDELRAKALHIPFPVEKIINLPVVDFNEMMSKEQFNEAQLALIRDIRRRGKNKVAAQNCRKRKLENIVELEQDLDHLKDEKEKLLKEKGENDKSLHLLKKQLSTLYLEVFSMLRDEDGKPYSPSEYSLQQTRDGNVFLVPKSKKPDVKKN
Chain of Keap1/Nrf2 (Q14145 whole entry, the tested form may be a part): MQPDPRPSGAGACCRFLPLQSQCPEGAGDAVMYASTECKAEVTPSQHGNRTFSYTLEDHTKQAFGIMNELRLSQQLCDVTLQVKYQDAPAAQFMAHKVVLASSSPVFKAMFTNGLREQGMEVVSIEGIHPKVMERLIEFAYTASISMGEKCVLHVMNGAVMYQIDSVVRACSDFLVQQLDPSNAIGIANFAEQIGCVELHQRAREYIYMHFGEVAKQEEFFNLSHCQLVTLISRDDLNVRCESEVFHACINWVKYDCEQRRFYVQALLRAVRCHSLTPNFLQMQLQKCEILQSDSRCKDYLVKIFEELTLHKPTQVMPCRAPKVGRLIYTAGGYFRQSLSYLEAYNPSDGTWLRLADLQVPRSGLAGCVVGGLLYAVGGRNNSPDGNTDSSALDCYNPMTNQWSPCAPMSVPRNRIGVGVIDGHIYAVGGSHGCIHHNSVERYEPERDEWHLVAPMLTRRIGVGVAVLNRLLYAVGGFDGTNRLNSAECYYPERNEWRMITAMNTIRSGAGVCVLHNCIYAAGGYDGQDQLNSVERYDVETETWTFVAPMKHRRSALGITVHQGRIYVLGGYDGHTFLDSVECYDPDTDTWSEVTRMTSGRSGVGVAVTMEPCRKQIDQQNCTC

COc1ccc(Nc2nc(-c3cccnc3)nc3ccccc23)cn1
EC50 [1]: 8.22 µM (active) | AC50 [2]: > 52 µM (inactive) | EC50 [3]: 12.4 µM (active)

COc1ccc(S(=O)(=O)NCc2ccc(C(=O)N3CCN(Cc4ccccc4)CC3)cc2)cc1
IC50 [4]: > 32 µM (inactive) | EC50 [5]: > 32 µM (inactive) | IC50 [6]: > 32 µM (inactive) | IC50 [7]: > 10 µM (inactive) | EC50 [8]: > 32 µM (inactive) | IC50 [9]: > 32 µM (inactive) | EC50 [10]: > 32 µM (inactive)

O=C(NC(NC(=S)Nc1ccc(F)cc1)C(Cl)(Cl)Cl)OCc1ccccc1 (stereo not drawn)
IC50 [4]: 6.02 µM (active) | EC50 [5]: > 32 µM (inactive) | IC50 [6]: > 32 µM (inactive) | IC50 [7]: > 10 µM (inactive) | EC50 [8]: > 32 µM (inactive) | IC50 [9]: > 32 µM (inactive) | EC50 [10]: > 32 µM (inactive)

O=C1Nc2ccc(Br)cc2/C1=N/N=C/C1=C(N2CCOCC2)C(=C\c2ccccc2)/CC1
EC50 [11]: 11.4 µM (active) | IC50 [12]: > 40 µM (not active) | EC50 [13]: 9.88 µM (active) | EC50 [14]: > 40 µM (inactive)

O=[N+]([O-])c1ccc(/C=N/n2c(CO)nc3ccccc32)s1
IC50 [15]: 1.51 µM (active) | CC50 [16]: > 20 µM (active) | CC50 [17]: 14.7 µM (active) | EC50 [18]: 0.568 µM (active) | AC50 [19]: 4.91 µM (active) | EC50 [20]: 42 µM (active) | AC50 [21]: 121 µM (active) | CC50 [22]: 32.4 µM (active) | AC50 [23]: 1.97 µM (active)

C/C(=N/NC(=O)c1ccc(Cn2cccn2)o1)c1cccc(NC(=O)c2ccncc2)c1
EC50 [24]: 5.31 µM (active) | EC50 [25]: 3.76 µM (active) | EC50 [26]: > 100 µM (inactive)
